Test results as given in PMC3726442 (PLoS ONE, 2013).

What was measured:
[1] = cited from earlier work
estrogen receptor = details: cited from earlier work
[2] = Plasma concentrations of tamoxifen and its metabolites in breast cancer patients on tamoxifen, by HPLC-tandem mass spectrometry
Description: One hundred and thirty five Caucasian patients of Spanish descent recently diagnosed with BC were recruited from the center Fundación Tejerina-Centro de Patología de la Mama (Madrid). Premenopausal and postmenopausal women were enrolled when started on TAM as standard adjuvant therapy after undergoing primary surgery, radiation and adjuvant chemotherapy. Patients were excluded if they had started TAM therapy simultaneously with either adjuvant chemotherapy or adjuvant radiation therapy (or both) or if they were undergoing other adjuvant endocrine therapies. Patients who were pregnant or breast-feeding were also excluded from the study. […] Blood samples were collected within 3 to 60 months of initiating TAM treatment.
Venous blood was collected from all 135 subjects before taking their daily 20- mg dose of TAM. Ten milliliters of heparin plasma were separated by centrifugation and immediately stored at −20°C until analysis. In addition, one milliliter of an EDTA blood sample was taken for subsequent DNA extraction and genotyping. DNA was isolated from peripheral leukocytes using a QIAamp DNA Blood Mini Kit® (Qiagen, Madrid, Spain) according to the manufacturer’s instructions. The DNA concentration was determined and adjusted to 2–20 ng/ µL.
TAM and its metabolites were separated and quantified by high-pressure liquid chromatography-tandem mass spectrometry using an Agilent HPLC 1200 system. HPLC experiments were performed using a binary pump G1312A, a G1316A column oven, G1379B degasser and an automatic injector H-ALS G1367B. Mobile phase A and phase B consisted of 0.1% formic acid in water and acetonitrile, respectively. Mobile phases A and B were pumped through a ZORBAX Eclipse XDB-C18 column (150 mm×2.1 mm I.D., 3.5 µm, Agilent USA) at a flow rate of 0.2 mL/min using the gradient shown in Table 1. Separation was conducted at 30°C. 15- µL aliquots were injected and the autosampler needle was rinsed in acetonitrile/water solution (1∶1). The total run time was 20 min. During the first 4.0 and last 2.0 min, the eluate was removed using a divert valve to avoid endogenous compounds entering the mass spectrometer.
As a detector, we used an A 6410 Triple Quadrupole mass spectrometer (Agilent Technologies, USA) equipped with a heated electrospray ionization source (Thermo Fisher Scientific, Waltham, MA, USA) operating in positive ion mode. For quantification, multiple reaction monitoring (MRM) chromatograms were acquired using Mass Hunter software version B.01.04 (Agilent Technologies, USA). Positive ions were created at atmospheric pressure. Quadrupoles operated at unit resolution (0.7 Da).
A 300- µL volume of 1% formic acid in acetonitrile containing internal standards was added to a 100- µL serum aliquot. After vortexing and centrifugation, the clear supernatant was transferred to a HybridSPE column (Supelco) and the eluents stored at 2–8°C until analysis. Samples were analyzed in triplicate.
Descriptive statistics were calculated using standard methods. Metabolic ratios were calculated as the concentration of substrate/concentration of metabolite. The non-normal distribution of data was confirmed by the Kolmogorov-Smirnov test. Levels of TAM, metabolites and ratios between genotype groups were compared using Wilcoxon-Mann-Whitney or Kruskal-Wallis tests. All statistical tests (two-sided) were performed using SPSS software (version 18.0 SPSS, Chicago, IL). Significance was set at a p<0.05.

[3] = all samples analyzed, n = 125, before daily 20 mg TAM dose

In the case of `CC/C(=C(\c1ccc(O)cc1)c1ccc(OCCNC)cc1)c1ccccc1` [Endoxifen, N-desmethyl-4-hydroxy-tamoxifen], the “serum levels relative to 4OH-TAM” value [1] is given as 10 fold, the “estrogen receptor affinity relative to TAM” value (estrogen receptor) is given as 100 fold and the “endoxifen levels in wt/wt CYP2D6 relative to v/v CYP2D6 patients” value ([2]; CYP2D6 genotype subgroups, Figure 1) is given as “over two-fold”. The “mean plasma concentration (±SD)” value [2, 3] was 24.75 ± 19.37 ng/mL, the median plasma concentration [2, 3] was 19.11 ng/mL and the “mean concentration relative to the 4OH-TAM mean concentration” value ([2]; all samples, n = 125) was “almost three times”. The “plasma concentration, mean ±SD” value ([2]; genotype CYP2D6 I/I, n = 1) was 9.53 ± 0.00 ng/mL, the “plasma concentration, median” value ([2]; genotype CYP2D6 I/I, n = 1) was 9.53 ng/mL and the “plasma concentration, range” value ([2]; genotype CYP2D6 I/I, n = 1) was “(9.53–9.53) ng/mL”. The “plasma concentration, mean ±SD” value ([2]; genotype CYP2D6 I/P, n = 8) was 12.01 ± 5.84 ng/mL, the “plasma concentration, median” value ([2]; genotype CYP2D6 I/P, n = 8) was 10.00 ng/mL and the “plasma concentration, range” value ([2]; genotype CYP2D6 I/P, n = 8) was “(4.46–21.02) ng/mL”. For the same molecule, the “plasma concentration, mean ±SD” value ([2]; genotype CYP2D6 P/P, n = 2) was 8.71 ± 6.41 ng/mL, the “plasma concentration, median” value ([2]; genotype CYP2D6 P/P, n = 2) was 8.71 ng/mL and the “plasma concentration, range” value ([2]; genotype CYP2D6 P/P, n = 2) was “(4.18–13.24) ng/mL”. For the same molecule, the “plasma concentration, mean ±SD” value ([2]; genotype CYP2D6 wt/I, n = 4) was 26.87 ± 17.31 ng/mL, the “plasma concentration, median” value ([2]; genotype CYP2D6 wt/I, n = 4) was 20.64 ng/mL and the “plasma concentration, range” value ([2]; genotype CYP2D6 wt/I, n = 4) was “(14.01–52.20) ng/mL”. The “plasma concentration, mean ±SD” value ([2]; genotype CYP2D6 wt/P, n = 26) was 23.76 ± 25.21 ng/mL, the “plasma concentration, median” value ([2]; genotype CYP2D6 wt/P, n = 26) was 14.57 ng/mL and the “plasma concentration, range” value ([2]; genotype CYP2D6 wt/P, n = 26) was “(5.01–107.10) ng/mL”. The “plasma concentration, mean ±SD” value ([2]; genotype CYP2D6 wt/wt, n = 78) was 26.47 ± 17.89 ng/mL, the “plasma concentration, median” value ([2]; genotype CYP2D6 wt/wt, n = 78) was 21.21 ng/mL and the “plasma concentration, range” value ([2]; genotype CYP2D6 wt/wt, n = 78) was “(4.03–95.87) ng/mL”. For the same molecule, the “plasma concentration, mean ±SD” value ([2]; genotype CYP2D6 wtxN/P, n = 2) was 36.09 ± 32.08 ng/mL, the “plasma concentration, median” value ([2]; genotype CYP2D6 wtxN/P, n = 2) was 36.09 ng/mL and the “plasma concentration, range” value ([2]; genotype CYP2D6 wtxN/P, n = 2) was “(13.40–58.77) ng/mL”. For the same molecule, the “plasma concentration, mean ±SD” value ([2]; genotype CYP3A4 wt/*1B, n = 3) was 22.31 ± 10.86 ng/mL, the “plasma concentration, median” value ([2]; genotype CYP3A4 wt/*1B, n = 3) was 26.69 ng/mL and the “plasma concentration, range” value ([2]; genotype CYP3A4 wt/*1B, n = 3) was “(9.95–30.30) ng/mL”. The “plasma concentration, mean ±SD” value ([2]; genotype CYP3A4 wt/*3, n = 2) was 49.15 ± 21.86 ng/mL, the “plasma concentration, median” value ([2]; genotype CYP3A4 wt/*3, n = 2) was 49.15 ng/mL and the “plasma concentration, range” value ([2]; genotype CYP3A4 wt/*3, n = 2) was “(33.69–64.61) ng/mL”. The “plasma concentration, mean ±SD” value ([2]; genotype CYP3A4 wt/*17, n = 9) was 19.86 ± 24.88 ng/mL, the “plasma concentration, median” value ([2]; genotype CYP3A4 wt/*17, n = 9) was 11.94 ng/mL and the “plasma concentration, range” value ([2]; genotype CYP3A4 wt/*17, n = 9) was “(4.46–84.57) ng/mL”. For the same molecule, the “plasma concentration, mean ±SD” value ([2]; genotype CYP3A4 wt/wt, n = 107) was 24.80 ± 19.03 ng/mL, the “plasma concentration, median” value ([2]; genotype CYP3A4 wt/wt, n = 107) was 19.12 ng/mL and the “plasma concentration, range” value ([2]; genotype CYP3A4 wt/wt, n = 107) was “(4.03–107.10) ng/mL”. The “plasma concentration, mean ±SD” value ([2]; genotype CYP3A5 *3/*3, n = 117) was 25.10 ± 19.66 ng/mL, the “plasma concentration, median” value ([2]; genotype CYP3A5 *3/*3, n = 117) was 19.12 ng/mL and the “plasma concentration, range” value ([2]; genotype CYP3A5 *3/*3, n = 117) was “(4.03–107.10) ng/mL”. For the same molecule, the “plasma concentration, mean ±SD” value ([2]; genotype CYP3A5 wt/*3, n = 6) was 14.14 ± 7.56 ng/mL, the “plasma concentration, median” value ([2]; genotype CYP3A5 wt/*3, n = 6) was 13.61 ng/mL and the “plasma concentration, range” value ([2]; genotype CYP3A5 wt/*3, n = 6) was “(5.40–23.01) ng/mL”. For the same molecule, the “plasma concentration, mean ±SD” value ([2]; genotype SULT1A1 *2/*2, n = 15) was 28.68 ± 24.18 ng/mL, the “plasma concentration, median” value ([2]; genotype SULT1A1 *2/*2, n = 15) was 19.82 ng/mL and the “plasma concentration, range” value ([2]; genotype SULT1A1 *2/*2, n = 15) was “(4.57–95.87) ng/mL”. The “plasma concentration, mean ±SD” value ([2]; genotype SULT1A1 wt/*2, n = 46) was 26.59 ± 19.97 ng/mL, the “plasma concentration, median” value ([2]; genotype SULT1A1 wt/*2, n = 46) was 22.58 ng/mL and the “plasma concentration, range” value ([2]; genotype SULT1A1 wt/*2, n = 46) was “(4.18–107.10) ng/mL”. For the same molecule, the “plasma concentration, mean ±SD” value ([2]; genotype SULT1A1 wt/wt, n = 60) was 22.43 ± 17.79 ng/mL, the “plasma concentration, median” value ([2]; genotype SULT1A1 wt/wt, n = 60) was 17.47 ng/mL and the “plasma concentration, range” value ([2]; genotype SULT1A1 wt/wt, n = 60) was “(4.03–89.98) ng/mL”. The “plasma concentration, mean ±SD” value ([2]; genotype SULT1A2 *2/*2, n = 16) was 26.59 ± 23.20 ng/mL, the “plasma concentration, median” value ([2]; genotype SULT1A2 *2/*2, n = 16) was 20.76 ng/mL and the “plasma concentration, range” value ([2]; genotype SULT1A2 *2/*2, n = 16) was “(4.18–95.87) ng/mL”. For the same molecule, the “plasma concentration, mean ±SD” value ([2]; genotype SULT1A2 *2/*3, n = 13) was 34.61 ± 20.35 ng/mL, the “plasma concentration, median” value ([2]; genotype SULT1A2 *2/*3, n = 13) was 32.02 ng/mL and the “plasma concentration, range” value ([2]; genotype SULT1A2 *2/*3, n = 13) was “(8.94–74.06) ng/mL”. For the same molecule, the “plasma concentration, mean ±SD” value ([2]; genotype SULT1A2 *3/*3, n = 5) was 27.34 ± 21.30 ng/mL, the “plasma concentration, median” value ([2]; genotype SULT1A2 *3/*3, n = 5) was 21.02 ng/mL and the “plasma concentration, range” value ([2]; genotype SULT1A2 *3/*3, n = 5) was “(12.13–64.61) ng/mL”. The “plasma concentration, mean ±SD” value ([2]; genotype SULT1A2 wt/*2, n = 33) was 28.84 ± 23.78 ng/mL, the “plasma concentration, median” value ([2]; genotype SULT1A2 wt/*2, n = 33) was 23.22 ng/mL and the “plasma concentration, range” value ([2]; genotype SULT1A2 wt/*2, n = 33) was “(4.46–107.10) ng/mL”. The “plasma concentration, mean ±SD” value ([2]; genotype SULT1A2 wt/*3, n = 16) was 23.99 ± 15.32 ng/mL, the “plasma concentration, median” value ([2]; genotype SULT1A2 wt/*3, n = 16) was 19.02 ng/mL and the “plasma concentration, range” value ([2]; genotype SULT1A2 wt/*3, n = 16) was “(7.80–51.61) ng/mL”. For the same molecule, the “plasma concentration, mean ±SD” value ([2]; genotype SULT1A2 wt/wt, n = 38) was 17.21 ± 11.79 ng/mL, the “plasma concentration, median” value ([2]; genotype SULT1A2 wt/wt, n = 38) was 14.78 ng/mL and the “plasma concentration, range” value ([2]; genotype SULT1A2 wt/wt, n = 38) was “(4.03–58.77) ng/mL”. The “plasma concentration, mean ±SD” value ([2]; genotype SULT1E1 *2/*2, n = 5) was 16.05 ± 8.07 ng/mL, the “plasma concentration, median” value ([2]; genotype SULT1E1 *2/*2, n = 5) was 20.60 ng/mL and the “plasma concentration, range” value ([2]; genotype SULT1E1 *2/*2, n = 5) was “(6.74–23.01) ng/mL”. For the same molecule, the “plasma concentration, mean ±SD” value ([2]; genotype SULT1E1 wt/*2, n = 28) was 24.30 ± 20.87 ng/mL, the “plasma concentration, median” value ([2]; genotype SULT1E1 wt/*2, n = 28) was 18.04 ng/mL and the “plasma concentration, range” value ([2]; genotype SULT1E1 wt/*2, n = 28) was “(4.18–95.87) ng/mL”. For the same molecule, the “plasma concentration, mean ±SD” value ([2]; genotype SULT1E1 wt/wt, n = 88) was 25.41 ± 19.51 ng/mL, the “plasma concentration, median” value ([2]; genotype SULT1E1 wt/wt, n = 88) was 19.12 ng/mL and the “plasma concentration, range” value ([2]; genotype SULT1E1 wt/wt, n = 88) was “(4.03–107.10) ng/mL”. For the same molecule, the “mean plasma concentration (±SD)” value ([2]; patients not receiving CYP2D6 inhibitors) was 25.30 ± 19.39 ng/mL and the “mean plasma concentration (±SD)” value ([2]; patients receiving CYP2D6 inhibitors concomitantly with TAM) was 15.55 ± 17.77 ng/mL.
